Test results as given in PubChem BioAssay AID248 (DTP/NCI, 2004).
Several values for one entry are separate records, joined by “and”; a condition that tells them apart may be missing. Equal values may be shown once. Inconclusive results and toxic doses are left out. Cut-off read from the data, not from the text of the source: active = T/C of 150% or more; inactive = T/C below 125%.

Tested on: L1210 leukemia ip in BDF1 mice, survival T/C
Experiment: NCI In Vivo Anticancer Drug Screen. Data for tumor model L1210 Leukemia (intraperitoneal) in B6D2F1 (BDF1) mice
Conditions: higher = longer survival
How it was run: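 Transplantable tumor model; survival measured in treated vs vehicle control mice. Value = treated/control.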

[1] = endpoint: mean survival time, dose: 50.0 mg/kg/injection, schedule: Q01DX001 (ip), vehicle: saline
[2] = endpoint: mean survival time, dose: 50.0 mg/kg/injection, schedule: Q01DX009 (ip), vehicle: saline
[3] = endpoint: mean survival time, dose: 100.0 mg/kg/injection, schedule: Q01DX001 (ip), vehicle: saline
[4] = endpoint: mean survival time, dose: 100.0 mg/kg/injection, schedule: Q01DX009 (ip), vehicle: Klucel (hydroxypropylcellulose) (HPC)
[5] = endpoint: mean survival time, dose: 100.0 mg/kg/injection, schedule: Q01DX009 (ip), vehicle: saline
[6] = endpoint: mean survival time, dose: 100.0 mg/kg/injection, schedule: Q04DX003 (ip), vehicle: Klucel (hydroxypropylcellulose) (HPC)
[7] = endpoint: mean survival time, dose: 200.0 mg/kg/injection, schedule: Q01DX001 (ip), vehicle: saline
[8] = endpoint: mean survival time, dose: 200.0 mg/kg/injection, schedule: Q01DX009 (ip), vehicle: Klucel (hydroxypropylcellulose) (HPC)
[9] = endpoint: mean survival time, dose: 200.0 mg/kg/injection, schedule: Q04DX003 (ip), vehicle: Klucel (hydroxypropylcellulose) (HPC)
[10] = endpoint: mean survival time, dose: 400.0 mg/kg/injection, schedule: Q01DX001 (ip), vehicle: saline
[11] = endpoint: mean survival time, dose: 400.0 mg/kg/injection, schedule: Q01DX009 (ip), vehicle: Klucel (hydroxypropylcellulose) (HPC)
[12] = endpoint: mean survival time, dose: 400.0 mg/kg/injection, schedule: Q04DX003 (ip), vehicle: Klucel (hydroxypropylcellulose) (HPC)
[13] = endpoint: mean survival time, dose: 100.0 mg/kg/injection, schedule: Q01DX001 (ip), vehicle: carboxymethylcellulose (CMC)
[14] = endpoint: mean survival time, dose: 200.0 mg/kg/injection, schedule: Q01DX001 (ip), vehicle: carboxymethylcellulose (CMC)
[15] = endpoint: mean survival time, dose: 400.0 mg/kg/injection, schedule: Q01DX001 (ip), vehicle: carboxymethylcellulose (CMC)
[16] = endpoint: mean survival time, dose: 100.0 mg/kg/injection, schedule: Q01DX009 (ip), vehicle: saline with Tween-80
[17] = endpoint: mean survival time, dose: 200.0 mg/kg/injection, schedule: Q01DX009 (ip), vehicle: saline with Tween-80

Measured: T/C

CN(C)c1ccc(/C=C\C(=O)c2ccccc2)cc1
inactive: [1] 96 % of control | [2] 94 % of control | [3] 102 % of control | [4] 95 % of control | [5] 102 % of control | [6] 94 % of control | [7] 111 % of control | [8] 95 % of control | endpoint: mean survival time, dose: 200.0 mg/kg/injection, schedule: Q01DX009 (ip), vehicle: saline 97 % of control | [9] 93 % of control | [10] 94 % of control | [11] 97 % of control | [12] 94 % of control

O=C(COc1ccc(Cl)cc1)Nc1ccccc1C(F)(F)F
inactive: [4] 102 % of control and 89 % of control | [6] 103 % of control | [8] 100 % of control | [9] 106 % of control | [11] 98 % of control | [12] 93 % of control

CCC(CC)NCC(C)(C)O
inactive: endpoint: mean survival time, dose: 75.0 mg/kg/injection, schedule: Q01DX001 (ip), vehicle: acid diluted with saline 115 % of control | endpoint: mean survival time, dose: 150.0 mg/kg/injection, schedule: Q01DX001 (ip), vehicle: acid diluted with saline 110 % of control

CSc1cc2c(cc1N)Cc1ccccc1-2
inactive: [13] 98 % of control | [14] 104 % of control | [15] 115 % of control

O=C(O)c1cc(C(=O)O)c(C(=O)O)cc1C(=O)O (tested in a mixture with another compound)
inactive: endpoint: mean survival time, dose: 5.0 mg/kg/injection, schedule: Q01DX001 (ip), vehicle: saline 107 % of control | endpoint: mean survival time, dose: 10.0 mg/kg/injection, schedule: Q01DX001 (ip), vehicle: saline 103 % of control | endpoint: mean survival time, dose: 20.0 mg/kg/injection, schedule: Q01DX001 (ip), vehicle: saline 98 % of control | endpoint: mean survival time, dose: 40.0 mg/kg/injection, schedule: Q01DX001 (ip), vehicle: saline 104 % of control | endpoint: mean survival time, dose: 80.0 mg/kg/injection, schedule: Q01DX001 (ip), vehicle: saline 96 % of control | [3] 98 % of control

c1ccc2cc(-c3nc4cccc5c4n3CCC5)ccc2c1
inactive: [16] 97 % of control | endpoint: mean survival time, dose: 100.0 mg/kg/injection, schedule: Q04DX003 (ip), vehicle: saline with Tween-80 92 % of control | [17] 95 % of control | endpoint: mean survival time, dose: 200.0 mg/kg/injection, schedule: Q04DX003 (ip), vehicle: saline with Tween-80 89 % of control | endpoint: mean survival time, dose: 400.0 mg/kg/injection, schedule: Q01DX009 (ip), vehicle: saline with Tween-80 98 % of control | endpoint: mean survival time, dose: 400.0 mg/kg/injection, schedule: Q04DX003 (ip), vehicle: saline with Tween-80 94 % of control

O=C(c1ccccc1)C1C(C(=O)c2ccccc2)C(c2ccccc2)N(c2ccccc2)C1c1ccccc1 (stereo not drawn)
inactive: [1] 94 % of control | [3] 94 % of control | [7] 97 % of control | [10] 105 % of control

BrCCCCOCBr
inactive: endpoint: mean survival time, dose: 50.0 mg/kg/injection, schedule: Q01DX009 (ip), vehicle: saline with Tween-80 97 % of control | [16] 101 % of control | [17] 106 % of control

O=C1Cc2cccc(=O)c(O)c2C(=O)O1
inactive: endpoint: mean survival time, dose: 25.0 mg/kg/injection, schedule: Q01DX009 (ip), vehicle: saline 97 % of control and 90 % of control | [2] 97 % of control and 92 % of control | [5] 96 % of control and 89 % of control | endpoint: mean survival time, dose: 100.0 mg/kg/injection, schedule: Q04DX003 (ip), vehicle: saline 111 % of control and 100 % of control | endpoint: mean survival time, dose: 200.0 mg/kg/injection, schedule: Q04DX003 (ip), vehicle: saline 97 % of control | endpoint: mean survival time, dose: 400.0 mg/kg/injection, schedule: Q04DX003 (ip), vehicle: saline 89 % of control

O=c1[nH]c(=O)c2cc3ccccc3nc2[nH]1
inactive: endpoint: mean survival time, dose: 50.0 mg/kg/injection, schedule: Q01DX001 (ip), vehicle: carboxymethylcellulose (CMC) 97 % of control | [13] 101 % of control | [14] 95 % of control | [15] 97 % of control

CC(C)SSC(C)C
inactive: [3] 105 % of control | [7] 108 % of control | [10] 89 % of control

OC1c2ccccc2C=Cc2ccccc21
inactive: [6] 104 % of control | [9] 101 % of control | [12] 101 % of control

NC(N)=N/N=C(/c1ccccc1)c1ccccc1F
inactive: endpoint: mean survival time, dose: 15.0 mg/kg/injection, schedule: Q01DX Z (ip), vehicle: saline 111 % of control | endpoint: mean survival time, dose: 30.0 mg/kg/injection, schedule: Q01DX Z (ip), vehicle: saline 100 % of control | endpoint: mean survival time, dose: 60.0 mg/kg/injection, schedule: Q01DX Z (ip), vehicle: saline 108 % of control | endpoint: mean survival time, dose: 120.0 mg/kg/injection, schedule: Q01DX Z (ip), vehicle: saline 103 % of control | endpoint: mean survival time, dose: 120.0 mg/kg/injection, schedule: Q01DX Z (oral), vehicle: saline 105 % of control | endpoint: mean survival time, dose: 240.0 mg/kg/injection, schedule: Q01DX Z (ip), vehicle: saline 95 % of control | endpoint: mean survival time, dose: 240.0 mg/kg/injection, schedule: Q01DX Z (oral), vehicle: saline 105 % of control | endpoint: mean survival time, dose: 480.0 mg/kg/injection, schedule: Q01DX Z (ip), vehicle: saline 96 % of control | endpoint: mean survival time, dose: 480.0 mg/kg/injection, schedule: Q01DX Z (oral), vehicle: saline 105 % of control

CCCCNC(=S)NC(=O)c1ccc(Br)cc1
inactive: endpoint: mean survival time, dose: 100.0 mg/kg/injection, schedule: Q04DX002 (ip), vehicle: Klucel (hydroxypropylcellulose) (HPC) 97 % of control | endpoint: mean survival time, dose: 200.0 mg/kg/injection, schedule: Q04DX002 (ip), vehicle: Klucel (hydroxypropylcellulose) (HPC) 97 % of control | endpoint: mean survival time, dose: 400.0 mg/kg/injection, schedule: Q04DX002 (ip), vehicle: Klucel (hydroxypropylcellulose) (HPC) 90 % of control

CC[C@H]1CN2CCc3cc(OC)c(OC)cc3[C@@H]2C[C@@H]1C[C@H]1NCCc2c1[nH]c1ccc(O)cc21
inactive: endpoint: mean survival time, dose: 0.25 mg/kg/injection, schedule: Q01DX006 (ip), vehicle: saline 109 % of control | endpoint: mean survival time, dose: 0.5 mg/kg/injection, schedule: Q01DX006 (ip), vehicle: saline 117 % of control | endpoint: mean survival time, dose: 2.0 mg/kg/injection, schedule: Q01DX005 (ip), vehicle: saline 121 % of control | endpoint: mean survival time, dose: 4.0 mg/kg/injection, schedule: Q01DX005 (ip), vehicle: saline 108 % of control | endpoint: mean survival time, dose: 4.0 mg/kg/injection, schedule: Q04DX003 (ip), vehicle: saline 114 % of control | endpoint: mean survival time, dose: 125.0 micrograms/kg/injection, schedule: Q01DX009 (ip), vehicle: saline 108 % of control | endpoint: mean survival time, dose: 250.0 micrograms/kg/injection, schedule: Q01DX009 (ip), vehicle: saline 118 % of control | endpoint: mean survival time, dose: 500.0 micrograms/kg/injection, schedule: Q01DX009 (ip), vehicle: saline 120 % of control | endpoint: mean survival time, dose: 1000.0 micrograms/kg/injection, schedule: Q01DX009 (ip), vehicle: saline 109 % of control | endpoint: median survival time, dose: 1.0 mg/kg/injection, schedule: Q04DX003 (ip), vehicle: saline + alcohol 108 % of control | endpoint: median survival time, dose: 2.0 mg/kg/injection, schedule: Q04DX003 (ip), vehicle: saline + alcohol 118 % of control

CCOC(=O)c1ccc2ccccc2[n+]1C
inactive: endpoint: mean survival time, dose: 75.0 mg/kg/injection, schedule: Q01DX001 (ip), vehicle: saline 89 % of control | endpoint: mean survival time, dose: 150.0 mg/kg/injection, schedule: Q01DX001 (ip), vehicle: saline 94 % of control | endpoint: mean survival time, dose: 300.0 mg/kg/injection, schedule: Q01DX001 (ip), vehicle: saline 91 % of control

O=c1[nH]c(SCc2ccc([N+](=O)[O-])cc2)nc2ccccc12
inactive: [6] 111 % of control | [9] 102 % of control | [12] 94 % of control
